The values below come from PMC7662639, “Synthesis and Evaluation of PEG-PR for Water Flux Correction in an In Situ Rat Perfusion Model” (Molecules, 2020).

Data set [1] in a line: Stability of markers and model drugs in Krebs–Ringer buffer (shaker bath, 37 °C, 120 min). The settings on record: for Ending (120 min) Conc. / Initial Conc.: 37 °C shaker bath, mean ± SD, n = 3; for Initial Conc.: start of experiment; for Percentage of concentration change: (Initial Conc. - Ending Conc.) / Initial Conc., 37 °C; for Ending (120 min) Conc. / Percentage of concentration change: 120 min. It counts as physicochemical. The procedure:
At the beginning and end (120 min) of the experiment, perfusion solution samples (0.4 mL) were acquired and centrifuged at 12,000 rpm for 10 min to determine the concentration changes of all compounds by HPLC analysis.
Table S1. Concentration changes of all compounds before and after the shaker bath
experiment. Data are shown as mean ± SD, n = 3.
Initial Ending Percentage of
Compound (120 min) concentration
As/Ai Conc. (μM) As/Ai Conc. (μM) change
As: HPLC peak area of compound .
Ai: HPLC peak area of internal standard .
Percentage of concentration change: (Initial Conc. -Ending Conc.) / Initial Conc.
Figure S7. Calibration line of PR (MW = 354) in Krebs–Ringer buffer.
(1 picture or pasted object on this page, not shown here)

The nature of data set [2]: Recirculation intestinal perfusion method, Peff of model drugs with water flux corrected by marker. It counts as in vivo, rat. The procedure: A male rat weighing about 200 g was anesthetized and then fixed on a plate heated by a lamp at 37 °C. Through careful operation, two glass tubs were tightly secured on both ends of the intestinal segment using silk sutures. The Krebs–Ringer buffer was injected into the gut from the head end of the intestinal segment with a syringe until the outflow was clear. The intestine was then covered with cotton gauze wetted with 37 °C Krebs–Ringer buffer to maintain intestinal integrity and activity. The peristaltic pump and donor chamber (syringe) were connected with two catheters ligated onto the two abovementioned glass tubs. The intestinal segments were placed carefully back into the rat abdomen to avoid interference with blood circulation. […] After stabilizing the whole system for 10 min with the perfusion solution (peristaltic pump, flow: 5 mL/min), the initial sample (0.4 mL, C’0) was collected from the donor chamber, and the equal perfusion solution with the model drug (100 μM, C0) was added into the donor chamber. Samples (0.4 mL, C’t and Ce) were then collected every 10 min for 60 min. Finally, the length of the perfused intestinal segment was precisely measured at the end of the experiment.
Internal standard solution (cresol red, 600 μg/mL) was added into the 300-μL sample solution and vortexed for 30 s. Then, 600 μL of […] was added, and the samples were vortexed for 2 min. After homogeneous mixing, the mixture was centrifuged at 10,000 rpm for 10 min. Finally, the 20-μL treated supernatant was subjected to detection by HPLC.
Thus, it was necessary to correct the volume of the perfusion solution during the experiment. In this work, the volumes of the perfused solutions (Vt) were calculated from the experimental concentrations of the markers (C’t) as (4) V0=C^′V^′/C0′ (5) Vt=(V0−0.4)Ct−1′+0.4C^′/Ct′ (t=1,2,3…).
The corrected drug concentration (Ct) was calculated as (6) Ct=CeVt/V0 where Ct represents the concentration of the compound corrected by the marker at time t, and Ce represents the experimental drug concentration value.
The apparent absorption rate coefficients (ka) were obtained by the equation of luminal corrected concentration versus time:(7) Ct=C0×e^−ka·t.
The Peff value was obtained from ka using the following equation, where R is the effective radius of the intestinal segment:(8) Peff=Ka·R/2.

Details of data set [3]: method as in ref 39 (Ruiz-Picazo et al. 2017). The settings on record: Doluisio method, ref 39 (Ruiz-Picazo et al. 2017), cited from earlier work.
Data set [4] in a line: Everted gut sac (EGS) permeability. It counts as in vitro ADME, rat. The procedure:
Briefly, the male Wistar rats were fasted for 1 day with access to only double-distilled water and then anesthetized with ether. Then, the duodenum, jejunum, ileum, and colon (10–15 cm) were cut out and preserved in cold Krebs–Ringer buffer. After the intestinal residue was removed, the intestinal segments were everted by a glass rod and ligated onto the appropriate glass tube. […] Then, 0.4 mL of receiver fluid was collected from the everted intestinal segments, and an equal blank Krebs–Ringer buffer was replenished every 15 min during the experiment.
An internal standard (cresol red 100 μg/mL) was added to every 300-μL intestinal fluid sample. The mixture was vortexed for 30 s and dried under nitrogen blowing at 40 °C. The residue was redissolved in 150-μL methanol and vortexed for 30 s. The supernatant was then subjected to detection by HPLC after centrifuging at 10,000 rpm for 10 min.

Data set [5] in a line: Water flux (Jwater) corrected by marker in the recirculation perfusion model. The settings on record: 60–120 min, marker 56 μM, mean ± SD, n = 6. Format: in vivo, rat. The procedure: The effective intestinal membrane permeability (Peff) of each model drug was surveyed using the recirculation intestinal perfusion method, as previously mentioned. A male rat weighing about 200 g was anesthetized and then fixed on a plate heated by a lamp at 37 °C. Through careful operation, two glass tubs were tightly secured on both ends of the intestinal segment using silk sutures. The Krebs–Ringer buffer was injected into the gut from the head end of the intestinal segment with a syringe until the outflow was clear. The intestine was then covered with cotton gauze wetted with 37 °C Krebs–Ringer buffer to maintain intestinal integrity and activity. The peristaltic pump and donor chamber (syringe) were connected with two catheters ligated onto the two abovementioned glass tubs. […] Finally, the length of the perfused intestinal segment was precisely measured at the end of the experiment.
As previously mentioned, the water flux through the membrane due to water absorption and secretion was of such significance that it could have influence on the accuracy of the experimental results. […] In this work, the volumes of the perfused solutions (Vt) were calculated from the experimental concentrations of the markers (C’t) as (4) V0=C^′V^′/C0′ (5) Vt=(V0−0.4)Ct−1′+0.4C^′/Ct′ (t=1,2,3…).
Jwater corrected by the marker was calculated using the following equation:(9) Jwater=d(V0−Vt)/dt (t=1,2,3…).

On the set-up of data set [6]: method as in ref 22 (Sutton et al. 2001). The settings on record: SPIP; ref 22 (Sutton et al. 2001); cited from earlier work.
Details of data set [7]: method as in ref 21 (Tugcu-Demiroz et al. 2014). The conditions noted are these: Doluisio technique; ref 21 (Tugcu-Demiroz et al. 2014); cited from earlier work.
For data set [8] the following is noted: after 8 h, rat perfusion experiments; cited from earlier work.
Where [9] appears, read: rat complete small intestine, water flux corrected by PEG4k-PR, mean ± SD, n = 3.
The mark [10] stands for this setting: rat complete small intestine, water flux corrected by PEG5k-PR, mean ± SD, n = 3.
Setting [11] is: rat complete small intestine, water flux corrected by PR, mean ± SD, n = 3.

Where two headings read alike, the source gives them in different places.

In the case of `CC(C)NCC(O)COc1ccc(CC(N)=O)cc1` (stereo not drawn) [Atenolol], the “Ending (120 min) Conc.” value in data set [1] was 105.93 ± 0.61 µM. Moreover, in data set [1], the “Initial Conc.” value is 105.19 ± 0.96 µM. Moreover, the “Percentage of concentration change” value in data set [1] is on record as 0.75%. The Peff was 3.3e-05 cm/s in data set [2] (colon, corrected by PEG5k-PR); 2.3e-05 cm/s in data set [2] (ileum, corrected by PEG5k-PR); 2.6e-05 cm/s in data set [2] (jejunum, corrected by PEG5k-PR); 1.06 ± 0.24 ×10^−5 cm/s in data set [2] (setting [9]); 1.38 ± 0.34 ×10^−5 cm/s in data set [2] (setting [10]); 0.49 ± 0.10 ×10^−5 cm/s in data set [2] (setting [11]). The Peff in data set [3] (colon) was 21.1 ×10⁻⁶ cm/s; in data set [3] (ileum) it was 16.3 ×10⁻⁶ cm/s; in data set [3] (jejunum) it was 22.7 ×10⁻⁶ cm/s.

For the molecule `COCCc1ccc(OCC(O)CNC(C)C)cc1` (stereo not drawn) [Metoprolol], the “Ending (120 min) Conc.” value in data set [1] turned out to be 102.12 ± 0.58 µM. In addition, in data set [1], the “Initial Conc.” value worked out at 103.62 ± 2.29 µM. For the same molecule, in data set [1], the “Percentage of concentration change” value came out at 1.46%. In addition, the Peff in data set [2] (colon, corrected by PEG5k-PR) is 0.000102 cm/s; in data set [2] (ileum, corrected by PEG5k-PR), 9.4e-05 cm/s; in data set [2] (jejunum, corrected by PEG5k-PR) it was 0.000107 cm/s; in data set [2] (setting [9]), 5.06 ± 0.57 ×10^−5 cm/s; in data set [2] (setting [10]), 5.29 ± 1.49 ×10^−5 cm/s; in data set [2] (setting [11]) it was 5.11 ± 0.85 ×10^−5 cm/s.

On to Phenol red [PR], for which the “Ending (120 min) Conc.” value in data set [1] is 56.11 ± 1.57 µM. In addition, in data set [1], the “Initial Conc.” value was 56.90 ± 1.10 µM. Further, the “Percentage of concentration change” value in data set [1] is 1.38%. Further, the cumulative permeable percentage in data set [4] (56 μM, all intestinal segments) is reported as 3–5%. Besides, in data set [4] (colon), the “cumulative permeable percentage at 112 μM relative to 28 μM” value is listed as “twice as large”. Moreover, the Papp is given as 4.07 ± 1.33 ×10^−6 cm/s in data set [4] (colon, 28 μM); 5.83 ± 1.9 ×10^−6 cm/s in data set [4] (colon, 56 μM); 8.57 ± 3.54 ×10^−6 cm/s in data set [4] (colon, 112 μM); 6.17 ± 2.17 ×10^−6 cm/s in data set [4] (ileum, 28 μM); 6.77 ± 2.32 ×10^−6 cm/s in data set [4] (ileum, 56 μM); 8.90 ± 1.65 ×10^−6 cm/s in data set [4] (ileum, 112 μM). In addition, the Papp in data set [4] (jejunum, 28 μM) is given as 7.68 ± 2.04 ×10^−6 cm/s; in data set [4] (jejunum, 56 μM) it was 8.36 ± 3.11 ×10^−6 cm/s; in data set [4] (jejunum, 112 μM) it was 10.42 ± 2.58 ×10^−6 cm/s. The “W (cumulative permeable percentage)” value in data set [4] (colon, 28 μM) worked out at 2.50 ± 0.82%; in data set [4] (colon, 56 μM), 3.36 ± 0.79%; in data set [4] (colon, 112 μM) it was 5.18 ± 1.22%; in data set [4] (ileum, 28 μM), 3.55 ± 1.50%; in data set [4] (ileum, 56 μM), 4.23 ± 1.38%; in data set [4] (ileum, 112 μM) it was 5.27 ± 2.31%. The “W (cumulative permeable percentage)” value in data set [4] (jejunum, 28 μM) turned out to be 4.44 ± 1.98%; in data set [4] (jejunum, 56 μM), 4.92 ± 1.12%; in data set [4] (jejunum, 112 μM) it was 5.77 ± 1.70%. The “Jwater (water flux) corrected by the marker” value in data set [5] is 88.7 ± 37.9 µL/cm/h. For the same molecule, the “average corrected water flux” value in data set [6] was 26.8 ± 49.2 µL/cm/h. The water flux in data set [7] was 55 µL/cm/h. Moreover, the urinary recovery result in data set [8] is “about 4%”.
